These results are taken from patent publication US10913736B2 (UNIVERSITY OF WASHINGTON, priority 2014, dated 2021).

“And” between values parts separate entries of the source, which are not always exact repeats. Equal entries are not always repeated. Where two headings read alike, the source gives them in different places. Some results are limits rather than exact numbers.

One assay addresses MetRS (T. brucei) (Trypanosoma brucei brucei, UniProt Q38C91). The experiment in a line: MetRS (T. brucei) ATP depletion assay using Kinase-Glo. The format is biochemical.
A further assay relates to T. cruzi. The experiment in a line: T. cruzi growth inhibition EC50. In kind it is cell-based. To be noted: Trypanosoma cruzi; read-out: C) T. cruzi EC50.
A further assay concerns the target MetRS (S. aureus) (Staphylococcus aureus, UniProt Q5HII6). The experiment in a line: biochemical. To be noted: ATP depletion, Kinase-Glo; read-out: H) MetRS (S. aureus) ATP depletion assay using Kinase-Glo with modified cpd dilution method, IC50. On the technique in general: Kinase-Glo measures the ATP left after a reaction by luminescence.
In another assay the test system is T. brucei. Nature of the assay: Growth inhibition assay of T. brucei cell cultures (Alamar Blue, 48 h). The format is cell-based.
A further assay relates to L. amaz. The experiment in a line: L. amaz growth inhibition EC50. The format is cell-based. The conditions noted are these: read-out: F) L. amaz EC50.
[1] abbreviates: Trypanosoma brucei; read-out: B) T. brucei EC50.

MetRS (S. aureus), sequence (Q5HII6 whole entry): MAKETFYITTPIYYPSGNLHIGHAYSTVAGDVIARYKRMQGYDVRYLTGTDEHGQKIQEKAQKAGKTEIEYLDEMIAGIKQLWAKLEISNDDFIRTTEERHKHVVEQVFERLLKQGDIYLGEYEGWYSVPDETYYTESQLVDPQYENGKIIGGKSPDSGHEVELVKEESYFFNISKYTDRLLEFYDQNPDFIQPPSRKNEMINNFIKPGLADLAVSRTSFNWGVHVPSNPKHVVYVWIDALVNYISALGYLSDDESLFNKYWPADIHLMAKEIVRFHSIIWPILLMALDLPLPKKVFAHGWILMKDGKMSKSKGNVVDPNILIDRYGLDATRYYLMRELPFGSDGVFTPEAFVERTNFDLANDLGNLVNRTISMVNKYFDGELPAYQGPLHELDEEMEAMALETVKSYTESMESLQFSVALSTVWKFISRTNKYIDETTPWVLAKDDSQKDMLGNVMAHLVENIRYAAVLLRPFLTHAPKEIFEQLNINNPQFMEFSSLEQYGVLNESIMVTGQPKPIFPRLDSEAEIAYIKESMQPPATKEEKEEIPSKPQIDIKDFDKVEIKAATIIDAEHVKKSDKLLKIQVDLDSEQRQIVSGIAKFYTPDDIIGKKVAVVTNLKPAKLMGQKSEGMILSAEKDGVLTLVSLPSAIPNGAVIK
MetRS (T. brucei), sequence (Q38C91 entry or part of it): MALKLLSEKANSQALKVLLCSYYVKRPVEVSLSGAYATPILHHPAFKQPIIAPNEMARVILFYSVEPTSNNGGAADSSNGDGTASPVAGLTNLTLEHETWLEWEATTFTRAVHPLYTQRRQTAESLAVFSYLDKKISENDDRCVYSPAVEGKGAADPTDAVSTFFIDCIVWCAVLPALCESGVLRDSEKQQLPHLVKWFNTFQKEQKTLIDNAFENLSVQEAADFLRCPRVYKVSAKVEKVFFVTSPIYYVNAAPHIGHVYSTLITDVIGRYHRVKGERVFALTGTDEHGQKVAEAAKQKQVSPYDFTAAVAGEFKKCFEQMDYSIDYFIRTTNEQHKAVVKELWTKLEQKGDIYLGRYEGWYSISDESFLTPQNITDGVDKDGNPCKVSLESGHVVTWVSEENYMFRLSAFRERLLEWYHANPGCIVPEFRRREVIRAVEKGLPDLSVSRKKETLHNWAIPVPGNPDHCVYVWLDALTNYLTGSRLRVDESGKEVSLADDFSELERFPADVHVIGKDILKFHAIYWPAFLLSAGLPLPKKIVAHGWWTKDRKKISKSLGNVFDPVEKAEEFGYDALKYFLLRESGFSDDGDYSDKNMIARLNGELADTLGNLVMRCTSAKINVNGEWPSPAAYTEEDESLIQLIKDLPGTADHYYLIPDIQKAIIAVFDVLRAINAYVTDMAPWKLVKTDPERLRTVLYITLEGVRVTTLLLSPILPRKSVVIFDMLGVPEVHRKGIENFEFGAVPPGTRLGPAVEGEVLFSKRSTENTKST

Broadly, the IC50 is the concentration that gives 50% inhibition. As usually defined, the EC50 is the midpoint of the concentration-response curve. As for `CC(Cc1nc2ccc(Cl)cc2[nH]1)NCc1cc(Cl)cc(Cl)c1` (stereo not drawn) [Compound 1794, [1-(5-chloro-1H-1,3-benzodiazol-2-yl)propan-2-yl][(3,5-dichlorophenyl)methyl]amine], the IC50 against MetRS (T. brucei) is 0.031 µM and 0.017 µM and 0.072 µM and 0.07 µM; at MetRS (S. aureus) it was 22.6 µM. Also, the EC50 with T. cruzi was 5.23 µM; with T. brucei (setting [1]) it was 1.33 µM; with T. brucei (read-out: B) T. brucei EC50), 1.87 µM and 1.84 µM.
Take `C[C@@H](Cc1nc2ccc(Cl)cc2[nH]1)NCc1cc(Cl)cc(Cl)c1` [Compound 1805, [(2S)-1-(6-chloro-1H-1,3-benzodiazol-2-yl)propan-2-yl][(3,5-dichlorophenyl)methyl]amine]: the IC50 was 0.056 µM and 0.027 µM against MetRS (T. brucei); more than 1 µM at MetRS (S. aureus). The EC50 in the assay with T. cruzi was found to be 5.61 µM; in the assay on T. brucei (setting [1]) it was 1.69 µM.
As to `Clc1ccc(CNC2CCCC(c3nc4nc(Cl)ccc4[nH]3)C2)c(Cl)c1` (stereo not drawn) [Compound 1809, 3-(5-chloro-1H-imidazo[4,5-b]pyridin-2-yl)-N-(2,4-dichlorobenzyl) cyclohexanamine], on MetRS (T. brucei), inhibition was half-maximal at 0.043 µM (IC50). In addition, the EC50 with T. cruzi was determined as 3.46 µM; in the assay on T. brucei (setting [1]), 0.821 µM.
As to `Clc1cc(Cl)cc(CNC2CCCN(c3nc4nc(Cl)ccc4[nH]3)C2)c1` (stereo not drawn) [Compound 1811, 1-(5-chloro-1H-imidazo[4,5-b]pyridin-2-yl)-N-(3,5-dichlorobenzyl) piperidin-3-amine], the IC50 against MetRS (T. brucei) is 0.008 µM; on MetRS (S. aureus), 0.709 µM. Moreover, the EC50 in the assay with T. cruzi was found to be 2.51 µM; with T. brucei (setting [1]), 0.0818 µM.
`Clc1cc(Cl)cc(CNCCNc2nc3ccc(Cl)cc3[nH]2)c1` [Compound 1829, {2-[(6-chloro-1H-1,3-benzodiazol-2-yl)amino]ethyl}[(3,5-dichlorophenyl)methyl]amine] came in with an IC50 against MetRS (T. brucei) of 0.085 µM. In addition, the figures for the EC50 in the assay with T. cruzi and in the assay with T. brucei (setting [1]) were 3.04 µM and 0.539 µM, respectively.
The corresponding values for `CC(=O)N(CCCc1nc2nc(F)ccc2[nH]1)Cc1cc(Cl)cc(Cl)c1` [Compound 1835, N-(3,5-dichlorobenzyl)-N-(3-(5-fluoro-1H-imidazo[4,5-b]pyridin-2-yl)propyl)acetamide] are 0.023 µM, more than 20 µM and 0.873 µM.
On MetRS (T. brucei), `Clc1cc(Cl)cc(CNCCc2nc3ncc(Cl)cc3[nH]2)c1` [Compound 1844, (2-{6-chloro-3H-imidazo[4,5-b]pyridin-2-yl}ethyl)[(3,5-dichlorophenyl)methyl]amine] registered an IC50 of 0.06 µM. The EC50 in the assay with T. cruzi was 5.42 µM; in the assay on T. brucei (setting [1]) it was 0.598 µM.
As to `Clc1cc(Cl)cc(CNCCNc2nc3ccc(Cl)nc3[nH]2)c1` [Compound 1849, [2-({5-chloro-3H-imidazo[4,5-b]pyridin-2-yl}amino)ethyl][(3,5-dichlorophenyl)methyl]amine], the IC50 against MetRS (T. brucei) was determined as 0.033 µM; on MetRS (S. aureus) it was 3.11 µM. In addition, the EC50 with T. cruzi is 1.81 µM; in the assay on T. brucei (setting [1]), 0.0607 µM.
Consider `Clc1cc(Cl)cc(NCC2CCCN(c3nc4nc(Cl)ccc4[nH]3)C2)c1` (stereo not drawn) [Compound 1862, 3,5-dichloro-N-((1-(5-chloro-1H-imidazo[4,5-b]pyridin-2-yl)piperidin-3-yl)methyl)aniline], for which the values for the IC50 on MetRS (T. brucei) and at MetRS (S. aureus) were 0.031 µM and 0.754 µM, respectively. The EC50 stood at 4.92 µM with T. cruzi and 0.343 µM with T. brucei (setting [1]).
On the same counts, the results for `Clc1ccc2[nH]c([C@H]3CCCN(Cc4ccc(Cl)c(Cl)c4)C3)nc2n1` [Compound 1870, (S)-5-chloro-2-(1-(3,4-dichlorobenzyl)piperidin-3-yl)-1H-imidazo[4,5-b]pyridine] are 0.054 µM, 0.837 µM, 2.61 µM and 0.458 µM.
On MetRS (T. brucei), `O=C(Cc1cc(Cl)cc(Cl)c1)NCc1nc2ccc(Cl)nc2[nH]1` [Compound 1875, N-({5-chloro-3H-imidazo[4,5-b]pyridin-2-yl}methyl)-2-(3,5-dichlorophenyl)acetamide] yielded an IC50 of 0.038 µM. Besides, the EC50 in the assay with T. cruzi came out at 13.1 µM; in the assay on T. brucei (setting [1]), 1.9 µM.
In turn, `Clc1cc(Cl)cc(CNCCCc2nc3ccc(Cl)nc3[nH]2)c1` [Compound 1881, (3-{5-chloro-3H-imidazo[4,5-b]pyridin-2-yl}propyl)[(3,5-dichlorophenyl)methyl]amine] registered an IC50 at MetRS (T. brucei) of 0.035 µM. The EC50 stood at 5.87 µM with T. cruzi and 0.307 µM in the assay with T. brucei (setting [1]).
Consider `COc1ccc(Oc2nc(NCc3nc4ccc(F)nc4[nH]3)nc(NCc3nc4ccc(F)nc4[nH]3)n2)c(Cl)c1` [Compound 1883, 6-(2-chloro-4-methoxyphenoxy)-2-N,4-N-bis({5-fluoro-3H-imidazo[4,5-b]pyridin-2-yl}methyl)-1,3,5-triazine-2,4-diamine], for which the IC50 on MetRS (T. brucei) is 0.039 µM; at MetRS (S. aureus), 0.333 µM. For the same molecule, the EC50 with T. cruzi amounted to 17.4 µM; in the assay with T. brucei (setting [1]), 5.62 µM; with T. brucei (read-out: B) T. brucei EC50), 3.67 µM.
For `COc1ccc(Oc2nc(NCc3nc4ccc(F)nc4[nH]3)nc(Oc3ccc(OC)cc3Cl)n2)c(Cl)c1` [Compound 1884, 4,6-bis(2-chloro-4-methoxyphenoxy)-N-({5-fluoro-3H-imidazo[4,5-b]pyridin-2-yl}methyl)-1,3,5-triazin-2-amine], the IC50 was found to be 0.024 µM at MetRS (T. brucei) and 0.122 µM on MetRS (S. aureus). The concentration for a half-maximal effect (EC50) in the assay with T. cruzi was 0.773 µM; with T. brucei (setting [1]), 0.0559 µM.
The corresponding values for `Fc1ccc2[nH]c(N3CCCC(NCc4cc(Cl)cc(Cl)c4)C3)nc2n1` (stereo not drawn) [Compound 1886, N-(3,5-dichlorobenzyl)-1-(5-fluoro-1H-imidazo[4,5-b]pyridin-2-yl) piperidin-3-amine] are 0.014 µM, 0.505 µM, 5.16 µM and 0.299 µM.
In the case of `Clc1cc(Cl)c2c(c1)C(N[C@H]1CCCN(c3nc4nc(Cl)ccc4[nH]3)C1)CCN2` (stereo partly drawn) [Compound 1899, 6,8-dichloro-N—((S)-1-(5-chloro-1H-imidazo[4,5-b]pyridin-2-yl)piperidin-3-yl)-1,2,3,4-tetrahydroquinolin-4-amine], the IC50 at MetRS (T. brucei) is 0.089 µM; at MetRS (S. aureus) it was 0.323 µM. For the same molecule, the half-maximal effective concentration (EC50) with T. cruzi was 0.26 µM.
Take `Fc1ccc2[nH]c(N3CCC[C@H](NCc4cc(Cl)cc(Cl)c4)C3)nc2n1` [Compound 1900, (S)—N-(3,5-dichlorobenzyl)-1-(5-fluoro-1H-imidazo[4,5-b]pyridin-2-yl)piperidin-3-amine]: the figures for the IC50 against MetRS (T. brucei) and on MetRS (S. aureus) were 0.027 µM and 0.303 µM, respectively. The EC50 was 2.24 µM in the assay on T. cruzi, 0.128 µM with T. brucei (setting [1]) and more than 0.2 µM in the assay with T. brucei (read-out: B) T. brucei EC50).
Consider `CCOc1c(Br)cc(Br)cc1CN[C@H]1CCCN(c2nc3nc(Cl)ccc3[nH]2)C1` [Compound 1910, (S)-1-(5-chloro-1H-imidazo[4,5-b]pyridin-2-yl)-N-(3,5-dibromo-2-ethoxybenzyl)piperidin-3-amine], for which the IC50 was found to be 0.019 µM against MetRS (T. brucei) and 0.022 µM at MetRS (S. aureus). In addition, the EC50 with T. cruzi stood at 0.934 µM; in the assay on T. brucei (setting [1]), 0.0395 µM.
Turning to `COc1c(Cl)cc(Cl)cc1CN[C@H]1CCCN(c2nc3nc(Cl)ccc3[nH]2)C1` [Compound 1911, (S)-1-(5-chloro-1H-imidazo[4,5-b]pyridin-2-yl)-N-(3,5-dichloro-2-methoxybenzyl)piperidin-3-amine], on MetRS (T. brucei), the IC50 amounted to 0.021 µM. In addition, the EC50 with L. amaz is 5.15 µM; in the assay on T. brucei (setting [1]) it was 0.357 µM.
Take `CC(=O)N(CCN(C)c1nc2ccc(Cl)nc2[nH]1)Cc1cc(Cl)cc(Cl)c1` [Compound 1926, N-(3,5-dichlorobenzyl)-N-(2-(5-chloro-N-methyl-1H-imidazo[4,5-b]pyridin-2-ylamino)ethyl)acetamide]: the IC50 stood at 0.02 µM at MetRS (T. brucei) and 0.172 µM at MetRS (S. aureus). Also, the EC50 in the assay with T. cruzi came out at 1.33 µM; in the assay with T. brucei (setting [1]), 0.0755 µM.
The corresponding values for `COc1ccc(Oc2ccnc(NCc3nc4ccccc4[nH]3)c2)c(Cl)c1` [Compound 1933, N-((1H-benzo[d]imidazol-2-yl)methyl)-4-(2-chloro-4-methoxyphenoxy)pyridin-2-amine] are 0.022 µM, 0.04 µM, 1.71 µM and 0.102 µM.
Turning to `CC(=O)N(CCN(C)c1nc2nc(Cl)ccc2[nH]1)[C@@H]1CCNc2c(Cl)cc(Cl)cc21` [Compound 1938, N-[2-({5-chloro-3H-imidazo[4,5-b]pyridin-2-yl}(methyl)amino)ethyl]-N-[(4R)-6,8-dichloro-1,2,3,4-tetrahydroquinolin-4-yl]acetamide], the IC50 against MetRS (T. brucei) was determined as 0.036 µM; at MetRS (S. aureus), 1.26 µM. The EC50 with T. cruzi worked out at 0.266 µM.
Turning to `CN(CCN(CCN(C)c1nc2nc(F)ccc2[nH]1)[C@@H]1CCNc2c(Cl)cc(Cl)cc21)c1nc2nc(F)ccc2[nH]1` [Compound 1939, (R)—N1-(6,8-dichloro-1,2,3,4-tetrahydroquinolin-4-yl)-N2-(5-fluoro-1H-imidazo[4,5-b]pyridin-2-yl)-N1-(2-((5-fluoro-1H-imidazo[4,5-b]pyridin-2-yl)(methyl)amino)ethyl)-N2-methylethane-1,2-diamine], the IC50 amounted to 0.073 µM on MetRS (T. brucei) and 0.271 µM at MetRS (S. aureus). Further, in the assay on T. cruzi, the EC50 turned out to be 0.176 µM.
`CCN(CCNCc1cc(Cl)cc(Cl)c1)c1nc2nc(Cl)ccc2[nH]1` [Compound 1949, 5-chloro-N-(2-{[(3,5-dichlorophenyl)methyl]amino}ethyl)-N-ethyl-3H-imidazo[4,5-b]pyridin-2-amine]: the values for the concentration for half-maximal inhibition (IC50) against MetRS (T. brucei) and on MetRS (S. aureus) were 0.018 µM and 0.606 µM, respectively. The results for the EC50 in the assay with T. cruzi, in the assay with T. brucei (setting [1]) and in the assay with T. brucei (read-out: B) T. brucei EC50) were 1.31 µM, 0.0799 µM and 0.0855 µM, respectively.
`N#Cc1cc(Cl)cc(CN[C@H]2CCCN(c3nc4nc(Cl)ccc4[nH]3)C2)c1` [Compound 1992, (S)-3-chloro-5-(((1-(5-chloro-1H-imidazo[4,5-b]pyridin-2-yl)piperidin-3-yl)amino)methyl)benzonitrile] came in with an IC50 against MetRS (T. brucei) of 0.014 µM. Moreover, the EC50 in the assay with T. cruzi stood at 2.13 µM; in the assay on T. brucei (setting [1]) it was 0.111 µM.
